Results published in ChEMBL document CHEMBL3046060, “Synthesis, molecular docking study, and anticancer activity of triaryl-1,2,4-oxadiazole” (Med Chem Res, 2013).

Tests used:
K562 [1] = assay: Cytotoxicity against Homo sapiens (human) K562 cells assessed as inhibition of cell proliferation after 24 hr by MTT assay; type: functional, cell-based; details: K562, 24 h
K562 [2] = assay: Cytotoxicity against Homo sapiens (human) K562 cells at 50 uM after 24 hr by MTT assay; type: functional
MCF7 [3] = assay: cells; details: Homo sapiens, MCF7, 24 h
Description: Cytotoxicity against Homo sapiens (human) MCF7 cells assessed as inhibition of cell proliferation after 24 hr by MTT assay

MCF7 [4] = assay: Cytotoxicity against Homo sapiens (human) MCF7 cells at 50 uM after 24 hr by MTT assay; type: functional

| IC50 (MCF7 [3]) | Structure (SMILES) | IC50 (K562 [1]) | Activity (K562 [2]) | Activity (MCF7 [4]) |
| --- | --- | --- | --- | --- |
| 10.1 µM | Clc1ccc(C2=NOC(c3ccc(Cl)cc3)N2c2ccccc2)cc1 (centres undefined) | 22.2 µM | >50% | >50% |
| 22.6 µM | Clc1ccc(C2=NOC(c3ccc(Cl)cc3)N2c2ccc(Cl)cc2)cc1 (centres undefined) | 51.2 µM | >50% | >50% |

The remaining lines, values behind:

| Structure (SMILES) | IC50 (MCF7 [3]) | IC50 (K562 [1]) | Activity (K562 [2]) | Activity (MCF7 [4]) |
| --- | --- | --- | --- | --- |
| Fc1ccc(C2ON=C(c3ccc(Cl)cc3)N2c2ccccc2)cc1 (centres undefined) | 6.5 µM | 21.7 µM | >50% | >50% |
| Clc1ccc(C2=NOC(c3ccccc3)N2c2ccccc2)cc1 (centres undefined) | 23.7 µM | 97 µM | >50% | >50% |
| COc1cccc2c1C(=O)c1c(O)c3c(c(O)c1C2=O)C[C@@](O)(C(=O)CO)C[C@@H]3O[C@H]1C[C@H](N)[C@H](O)[C@H](C)O1 [DOXORUBICIN] | > 100 µM | 4.49 µM | – | – |
| CC(=O)O[C@H]1C(=O)[C@@]2(C)[C@H]([C@H](OC(=O)c3ccccc3)[C@]3(O)C[C@H](OC(=O)[C@H](O)[C@@H](NC(=O)c4ccccc4)c4ccccc4)C(C)=C1C3(C)C)[C@]1(OC(C)=O)CO[C@@H]1C[C@@H]2O [PACLITAXEL] | – | > 100 µM | – | – |
